Reference: patent US9757393B2 (priority 2015, dated 2017)

Columns and labels:
HFD-fed C57BL/6J mice [1] = assay: Blood glucose, HbA1c, blood lipids, insulin and leptin levels in HFD-fed mice; assay type: in vivo; settings: for Blood Profiles FFA / Blood Profiles HDL-C / Blood Profiles HbA1c / Blood Profiles LDL-C: oral gavage daily for 4 weeks
Protocol: (§1) Experimental Animals: the experiments are conducted under the guidelines of the Institutional Animal Care and Use Committee of Central Taiwan University of Science and Technology. As previously described, four-week-old male C57BL/6J mice (n=63) is purchased from the National Laboratory Animal Breeding and Research Center, Ministry of Science and Technology. After 1-week of acclimatization, mice are designed to initiate the study, and the study lasts for 12 weeks. […] The CON group and high-fat control (HF) group are given with vehicle only. The low-fat diet consisted of fat 10%, whereas the high-fat diet (HFD) consisted of fat 45% (of total energy, % kcal). The compositions of the experimental diets are shown as described. At the end of the study, food is derived from the animals (from 10 p.m. to 10 a.m.). On the next day, the mice are sacrificed, and blood and tissue are collected for analysis. Livers, skeletal muscles, and white adipose tissues (WATs) (including epididymal, mesenteric and retroperitoneal WAT) are excised and weighed, and then immediately stored in a freezer at −80° C. Heparin (30 units/mL) (Sigma) is added to blood samples. Plasma samples are collected by centrifugation at 1600 g for 15 min at 4° C. within 30 min, and plasma is obtained for insulin and leptin level analysis.
Blood Glucose and HbA1c Levels. Blood samples (0.8 mL) are collected from the retro-orbital sinuses of fasting mice, and glucose level is measured by the glucose oxidase method (model 1500; Sidekick Glucose Analyzer; YSI Inc., Yellow Springs, Ohio, USA). Percent HbA1c is detected with a Hemoglobin A1c kit (BioSystems S.A., Barcelona, Spain). Plasma triglycerides (TG), total cholesterol (TC), free fatty acids (FFA), high-density lipoprotein cholesterol (HDL-C), and low density lipoprotein cholesterol (LDL-C) are determined using commercial assay kits (Triglycerides-E test, Cholesterol-E test, and FFA-C test, Wako Pure Chemical, Osaka, Japan; HDL-C-test and LDL-C-test, Roche Diagnostics GmbH, Indianapolis, USA) according to their instructions. A mouse insulin ELISA kit (Sibayagi, Gunma, Japan) and mouse leptin ELISA kit (Morinaga, Yokohama, Japan) are used to measure blood insulin and leptin levels, respectively.

HFD-fed C57BL/6J mice [2] = assay: Histopathology examination of epididymal WAT and liver tissue; assay type: in vivo; settings: oral gavage daily for 4 weeks
Protocol: as §1
A portion of the collected epididymal WAT and liver tissue is fixed with formalin (200 g/kg) neutral buffered solution and embedded in paraffin. Sections (8 μm) are cut and stained with hematoxylin and eosin. A microscope (Leica, DM2500) and Leica Digital camera (DFC-425-C) are used for microscopic examination and images taken, respectively.

HFD-fed C57BL/6J mice [3] = assay: Hepatic lipid in HFD-fed mice; assay type: in vivo; settings: oral gavage daily for 4 weeks
Protocol: as §1
Blood Lipid and Hepatic Lipid. Hepatic lipids are extracted as previously described. Liver sample (0.375 g) is homogenized with 1 mL of distilled water for 5 min for the hepatic lipid extraction and analyzed using a triglycerides kit as used for serum lipids.

HFD-fed C57BL/6J mice [4] = assay: Body weight, food intake and tissue weight in HFD-fed mice; assay type: in vivo; settings: oral gavage daily for 4 weeks
Protocol: as §1
Body Weight, Food Intake and Tissue Weight. Throughout the embodiment, body weight and food intake are daily recorded at the same time. Body weight gain is defined as the difference between 1 day and the next day. The pellet food is weighed and placed in a cage food container. After 24 h, the remaining food is weighed and the crumbs are collected as much as possible. Based on the difference between 1 day and the next day, the daily food intake is calculated.

membrane GLUT4 = assay: Western blotting of membrane GLUT4 in skeletal muscle; assay type: in vivo, C57BL/6J mice; settings: HFD-fed mice, 10 mg/kg/day
Protocol: as §1
Protein extractions and immunoblots for the determination of membrane GLUT4, phospho-AMPK (Thr172), and phospho-Akt (Ser 473) proteins are carried out on frozen skeletal muscle and liver tissue from mice, which follows a previous paper. Additionally, membrane GLUT4 is carried out on frozen skeletal muscle from mice, and the total membrane fractions are collected with buffer and centrifuged as a previously described. The protein contents of membrane GLUT4, phospho-AMPK, phospho-Akt, total AMPK, and total Akt are detected by western blotting. Western blotting has been determined as described elsewhere. Subsequently, antibodies are detected using horseradish peroxidase linked to a goat anti-IgG rabbit secondary antibody and visualized using an ECL system. Membrane GLUT4, structural proteins GAPDH and β-actin are purchased from Santa Cruz Biotechnology (Santa Cruz, Calif., USA); phospho-AMPK was obtained from Abcam Inc. (Cambridge, Mass., USA); phospho-Akt, total AMPK, and total Akt are from Cell Signaling Technology, Inc. (Danver Mass., USA); the BCA protein assay kit is from Thermo Scientific (Rockford, Ill., USA); and the ECL reagent kit is from GE Healthcare BioSciences (Buckinghamshire, UK). The secondary antibody antirabbit is from Jackson ImmunoResearch Laboratories, Inc. (West Grove, Pa., USA). The density blotting is analyzed using Alpha Easy FC software (Alpha Innotech Corp., Randburg, South Africa). Structural proteins GAPDH and β-actin are obtained by stripping the nitrocellulose membrane proteins of liver and skeletal muscle, respectively.

CC(C)OC(=O)C(C)(C)Oc1ccc(C(=O)c2ccc(Cl)cc2)cc1 [Feno, fenofibrate, reference compound]
decrease of the circulating TG level (HFD-fed C57BL/6J mice [1]; 250 mg/kg/day): 47.9% | Blood Profiles FFA (HFD-fed C57BL/6J mice [1]; 250 mg/kg/day): 0.94 ± 0.08 meq/L | Blood Profiles HDL-C (HFD-fed C57BL/6J mice [1]; 250 mg/kg/day): 80.3 ± 4.5 mg/dL | Blood Profiles HbA1c (HFD-fed C57BL/6J mice [1]; 250 mg/kg/day): 6.4 ± 0.7 % | Blood Profiles LDL-C (HFD-fed C57BL/6J mice [1]; 250 mg/kg/day): 105.8 ± 10.4 mg/dL | average area of adipocytes (epididymal WAT) (HFD-fed C57BL/6J mice [2]; 250 mg/kg/day): 4175.4±322.9 μm2 | Liver Lipids total lipid (HFD-fed C57BL/6J mice [3]; 250 mg/kg/day): 63.8 ± 4.7 mg/g | Liver Lipids triacylglycerol (HFD-fed C57BL/6J mice [3]; 250 mg/kg/day): 48.4 ± 5.6 µmol/g | Absolute Tissue Weight BAT (HFD-fed C57BL/6J mice [4]; 250 mg/kg/day): 0.142 ± 0.012 g | Absolute Tissue Weight EWAT (HFD-fed C57BL/6J mice [4]; 250 mg/kg/day): 0.924 ± 0.069 g | Absolute Tissue Weight Liver (HFD-fed C57BL/6J mice [4]; 250 mg/kg/day): 1.046 ± 0.033 g | Absolute Tissue Weight MWAT (HFD-fed C57BL/6J mice [4]; 250 mg/kg/day): 0.295 ± 0.009 g | Absolute Tissue Weight RWAT (HFD-fed C57BL/6J mice [4]; 250 mg/kg/day): 0.249 ± 0.028 g | Absolute Tissue Weight Skeletal muscle (HFD-fed C57BL/6J mice [4]; 250 mg/kg/day): 0.569 ± 0.069 g | weight gain (HFD-fed C57BL/6J mice [4]; 250 mg/kg/day): 0.69 ± 0.63 g

CN(CCOc1ccc(CC2SC(=O)NC2=O)cc1)c1ccccn1 (stereo not drawn) [Rosi, rosiglitazone, reference compound]
Blood Profiles FFA (HFD-fed C57BL/6J mice [1]; 10 mg/kg/day): 1.00 ± 0.09 meq/L | Blood Profiles HDL-C (HFD-fed C57BL/6J mice [1]; 10 mg/kg/day): 73.1 ± 5.8 mg/dL | Blood Profiles HbA1c (HFD-fed C57BL/6J mice [1]; 10 mg/kg/day): 6.2 ± 0.4 % | Blood Profiles LDL-C (HFD-fed C57BL/6J mice [1]; 10 mg/kg/day): 86.7 ± 7.7 mg/dL | average area of adipocytes (epididymal WAT) (HFD-fed C57BL/6J mice [2]; 10 mg/kg/day): 5598.6±162.7 μm2 | Liver Lipids total lipid (HFD-fed C57BL/6J mice [3]; 10 mg/kg/day): 65.1 ± 5.3 mg/g | Liver Lipids triacylglycerol (HFD-fed C57BL/6J mice [3]; 10 mg/kg/day): 44.5 ± 3.2 µmol/g | enhancement of muscular membrane GLUT4 protein (membrane GLUT4): ~2.1 fold | Absolute Tissue Weight BAT (HFD-fed C57BL/6J mice [4]; 10 mg/kg/day): 0.175 ± 0.018 g | Absolute Tissue Weight EWAT (HFD-fed C57BL/6J mice [4]; 10 mg/kg/day): 0.813 ± 0.069 g | Absolute Tissue Weight Liver (HFD-fed C57BL/6J mice [4]; 10 mg/kg/day): 0.816 ± 0.038 g | Absolute Tissue Weight MWAT (HFD-fed C57BL/6J mice [4]; 10 mg/kg/day): 0.257 ± 0.019 g | Absolute Tissue Weight RWAT (HFD-fed C57BL/6J mice [4]; 10 mg/kg/day): 0.244 ± 0.042 g | Absolute Tissue Weight Skeletal muscle (HFD-fed C57BL/6J mice [4]; 10 mg/kg/day): 0.737 ± 0.094 g | weight gain (HFD-fed C57BL/6J mice [4]; 10 mg/kg/day): 1.71 ± 0.56 g
